# In PubChem BioAssay (NCI):
# Where “and” joins values, the source holds several entries; their conditions need not be identical. Equal entries are not always repeated.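 Where inhibition never reached the appropriate level, the endpoint shown equals the highest concentration tested. Otherwise, values were interpolated linearly from a five-concentration, 48-hour dose response in 96-well plates. GI50 is the concentration that inhibits growth by half. The concentration for full growth arrest is given as TGI.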
# Key:
# Experiment in all cases: NCI anticancer screen, dose series, 48 h
# [1] = system: OVCAR-3 ovarian
# [2] = system: UACC-62 melanoma
# [3] = system: LOX IMVI melanoma
# [4] = system: SW-620 colon
# [5] = system: SF-539 CNS
# [6] = system: A549 NSCLC
# [7] = system: KM12 colon
# [8] = system: NCI/ADR-RES ovarian
# [9] = system: OVCAR-8 ovarian
# [10] = system: NCI-H460 lung
SMILES,GI50 [1] [µM],TGI [1] [µM],GI50 [2],TGI [2] [µM],GI50 [3] [µM],TGI [3] [µM],GI50 [4] [µM],TGI [4] [µM],GI50 [5],TGI [5] [µM],GI50 [6] [µM],TGI [6] [µM],GI50 [7] [µM],TGI [7] [µM],GI50 [8] [µM],TGI [8] [µM],GI50 [9] [µM],TGI [9] [µM],GI50 [10] [µM],TGI [10] [µM]
COC(=O)c1cc2oc(/C=C3/SC(=S)N(NC(C)=O)C3=O)cc2n1C,19.2,55,14.7 µM,35,11.1,27.9,7.51,25.5,12.9 µM,29.1,28.3,> 100,26.4,> 100,15.3,51.4,23.1,99.1,8.26,> 100
C=C(C)C12OC1[C@@]1(C)C(=CC2=O)CCC(O)[C@@H]1C (stereo partly drawn),–,> 100,–,75.4,–,16.6,–,> 100,–,15.8,–,20.3,–,16.7,–,–,–,8.24,–,11.4
NC(N)=NS(=O)(=O)c1ccc(N=Nc2c(O)c(C(=O)O)cc3ccccc23)cc1,–,> 100,–,> 100,–,–,–,> 100,–,> 100,–,> 100,–,> 100,–,> 100,–,> 100,–,> 100
N#CCCC[Si]12OCCN(CCO1)CCO2,–,> 100,–,> 100,–,–,–,> 100,–,> 100,–,> 100,–,> 100,–,–,–,> 100,–,> 100
CN1C(=O)C(=O)N2c3ccc(Cl)cc3C3(c4ccccc4)N=CC12O3 (stereo not drawn),–,14.8,–,15.3,–,–,–,14.5,–,14.6,–,23.1,–,13.7,–,–,–,12.8,–,25.8
COc1cc(-c2nn(-c3cccc(NC(=O)c4ccccc4)c3)cc2-c2ccncc2)ccc1Cl,0.313,13.9,0.568 µM,> 100,0.567,> 100,0.451,> 36.3,0.413 µM,2.65,0.496,> 60.6,0.467,96.9,0.36,> 100,0.995,> 100,0.366,> 33.2
NC(=S)N/N=C\c1nccc2c(C(F)(F)F)cccc12,0.294,10.8,0.283 µM,1.15,0.277,10.8,0.463,17.4,0.243 µM,0.857,0.293,3.26,0.356,16.9,0.349,20.4,0.308,24,0.26,8.59
Cc1[cH-]c(=O)n(-c2ccccc2)n1.[Au+].[Au].c1ccc([PH+](c2ccccc2)c2ccccc2)cc1.c1ccc([PH+](c2ccccc2)c2ccccc2)cc1,16.7,39.1,3.55 µM and 22.2 µM,> 100,18,46.8,26.9,81.4,2.38 µM and 10.4 µM,33.4,46.8,> 100,36.7,> 100,–,–,14.6,41.5,14.4,37.7
Cn1cc(-c2cc3c(N4CCN(c5ncc([C@@](C)(N)c6ccc(F)cc6)cn5)CC4)ncnn3c2)cn1,–,–,5.23 µM,> 100,3.27,> 100,–,–,1.6 µM,> 100,5.61,> 100,3.49,> 100,–,–,4.11,> 100,4.41,> 100
CCOC(=O)C1Sc2ccccc2N=C1C (stereo not drawn),–,> 100,–,–,–,> 100,–,> 100,–,> 100,–,> 100,–,> 100,–,–,–,> 100,–,> 100
[O-][Cl+3]([O-])([O-])[O-].[O]=[Ru]=[O].c1ccc(-c2ccccn2)nc1.c1ccc(-c2ccccn2)nc1,> 100,> 100,> 100 µM,> 100,56.8,> 100,> 100,> 100,> 100 µM,> 100,> 100,> 100,> 100,> 100,–,–,> 100,> 100,56.1,> 100
Clc1ccc2cccc3c2c1C1OC3c2ccccc21 (stereo not drawn),–,> 100,–,> 100,–,> 100,–,> 100,–,> 100,–,> 100,–,> 100,–,–,–,> 100,–,–
Cc1cc(Nc2ccc(C)c(Cl)c2)n2nc(C(F)(F)F)nc2n1,22,75.9,19.6 µM,50.1,26.5,73.9,30.2,> 100,19.1 µM,39,–,–,27.2,> 100,27.1,> 100,29.3,> 100,20.9,78.7
Cc1ccc(-c2nc(N3CCNCC3)c3oc(-c4ccc(C)cc4)nc3n2)cc1,1.95,3.87,13.3 µM,28.6,1.88,3.46,1.8,4.02,–,–,3.35,12.4,1.66,3.2,2,3.81,2.13,4.63,2.03,4.41
Cc1nnc2ccnn2c1C,> 100,> 100,> 100 µM,> 100,> 100,> 100,> 100,> 100,–,–,> 100,> 100,> 100,> 100,20.5,43.4,> 100,> 100,> 100,> 100
Cc1ccc(NC2=C3CCCCC3OC2=O)cc1 (stereo not drawn),68.7,> 100,47 µM,> 100,–,–,> 100,> 100,> 100 µM,> 100,> 100,> 100,> 100,> 100,> 100,> 100,78.4,> 100,> 100,> 100
O=C1C(C(Nc2ccccc2)c2ccccc2)=C([O-])c2ccccc21.O=C1C(C(Nc2ccccc2)c2ccccc2)=C([O-])c2ccccc21.[Cu+2] (stereo not drawn),–,–,50.6 µM,> 100,46.6,> 100,42.6,> 100,30.6 µM,> 100,27.2,> 100,32.2,> 100,–,–,41.9,> 100,40,> 100
O=c1c2cccnc2ncn1CCN1CCCCC1,–,> 100,–,> 100,–,> 100,–,> 100,–,> 100,–,> 100,–,> 100,–,–,–,> 100,–,> 100

SMILES,GI50 [1] [µM],TGI [1] [µM],GI50 [2],TGI [2] [µM],GI50 [3] [µM],TGI [3] [µM],GI50 [4] [µM],TGI [4] [µM],GI50 [5],TGI [5] [µM],GI50 [6] [µM],TGI [6] [µM],GI50 [7] [µM],TGI [7] [µM],GI50 [8] [µM],TGI [8] [µM],GI50 [9] [µM],TGI [9] [µM],GI50 [10] [µM],TGI [10] [µM]
CN(C)CC1CCCC/C1=N/O (stereo not drawn),–,> 100,–,> 100,–,> 100,–,> 100,–,> 100,–,> 100,–,> 100,–,–,–,> 100,–,> 100
CC(=O)[O-].CC(=O)[O-].O=C(N/N=C/c1cc(Cl)cc(Cl)c1O)c1ccncc1.[Cu+2],–,> 100,–,> 100,–,> 100,–,> 100,–,> 100,–,> 100,–,> 100,–,–,–,> 100,–,> 100
COc1ccc(/C=C/COC(C)=O)cc1OC,–,> 100,–,> 100,–,–,–,> 100,–,> 100,–,> 100,–,> 100,–,–,–,> 100,–,–
CN(C)C=Nc1nc(=O)n(C2CCC(CO)O2)cc1F (stereo not drawn),–,> 100,–,–,–,> 100,–,> 100,–,–,–,> 100,–,> 100,–,–,–,> 100,–,> 100
Cc1nc(-c2nc(C)c(C(=O)NNC(=O)C[n+]3ccccc3)s2)sc1C(=O)NNC(=O)C[n+]1ccccc1,–,> 100,–,> 100,–,> 100,–,> 100,–,> 100,–,> 100,–,> 100,–,–,–,> 100,–,> 100
O=C(O)CSc1n[nH]c(-c2ccccc2O)n1,–,> 100,–,> 100,–,> 100,–,> 100,–,> 100,–,> 100,–,–,–,–,–,> 100,–,> 100
C#Cc1cccc(Nc2nc3cc([N+](=O)[O-])ccc3nc2Nc2ccc(O)cc2)c1,1.87,4.14,1.62 µM,2.99,1.38,2.69,1.79,3.87,1.75 µM,3.29,2.17,4.78,1.83,3.89,1.84,4.37,2.33,6.48,–,–
CCCOc1nc(N)c2cnn(C3CCCCO3)c2n1 (stereo not drawn),–,> 100,–,> 100,–,–,–,> 100,–,> 100,–,> 100,–,> 100,–,–,–,> 100,–,> 100
CN(C)C(=S)/N=c1\ssc(=S)n1C1CCCCC1,–,–,–,34.2,–,–,–,28.4,–,48.3,–,> 100,–,> 100,–,–,–,53.9,–,> 100
CC1(C)[C@@H](NOCCCN)CC[C@]2(C)[C@H]3C(=O)C=C4[C@@H]5C[C@](C)(C(=O)O)CC[C@]5(C)CC[C@@]4(C)[C@]3(C)CC[C@@H]12,4.17,19.7,3.85 µM,14.8,–,–,3.41,14,11.9 µM,24.2,6.13,33.6,3.27,12.6,10.6,69.4,6.18,28.7,8.29,46
O=S1C(=c2ccc(=C3Sc4ccccc4S3)cc2)Sc2ccccc21 (stereo not drawn),–,> 100,–,35.2,–,32.2,–,> 100,–,30.5,–,35.5,–,31.4,–,–,–,34.4,–,> 54.8
Cc1ccc(S(=O)(=O)N2CCC2c2ccccc2)cc1 (stereo not drawn),–,> 100,–,> 100,–,> 100,–,> 100,–,> 100,–,> 100,–,> 100,–,–,–,> 100,–,> 100
O=c1[nH]c(-c2ccccc2)nc2cc(Cl)ccc12,–,> 100,–,> 100,–,–,–,> 100,–,> 100,–,> 100,–,> 100,–,–,–,> 100,–,> 100
COc1c(CC(C)=O)ccc2c1C(=O)c1ccc(C=O)c(OC(C)=O)c1C2=O,–,35.3,–,18.5,–,40.3,–,33.7,–,20.8,–,> 100,–,39.2,–,–,–,97.3,–,63.2
CN(C)CC1CCC/C1=N/OC(=O)c1ccccc1 (stereo not drawn),–,> 100,–,> 100,–,> 100,–,> 100,–,> 100,–,–,–,–,–,–,–,> 100,–,> 100
C=C1C(=O)O[C@H]2[C@H]1CC/C(CNC(=O)c1cc3ccccc3[nH]1)=C\CC[C@@]1(C)O[C@@H]21,0.504,1.69,–,–,0.58,1.99,0.523,2.01,1.61 µM,3.16,4.39,15.7,2.08,5,3.08,12.3,2.08,5.87,4.09,17.3
COc1ccc2c(c1)[n+]([O-])c(C(N)=O)c(N)[n+]2[O-],–,98.5,–,–,–,–,–,> 100,–,> 100,–,> 100,–,> 100,–,–,–,> 100,–,> 100
O=C(NC1C=CCC2C(=O)N(c3ccccc3)C(=O)C12)OCc1ccccc1 (stereo not drawn),–,> 100,–,> 100,–,> 100,–,> 100,–,> 100,–,> 100,–,> 100,–,–,–,> 100,–,> 100
